Tested on: T1, EstD04
T1 construct: C-terminal His6 tag (kept), pET-21a, E. coli BL21(DE3); catalytic triad Ser160/Glu253/His283; gene PCR-amplified with primers from P. nitroreducens homologue CEG18-11055 (homologue, not this protein)
Assay: p-nitrophenol release at […] nm, Lineweaver-Burk
Assay type: biochemical, Pseudomonas sp. D01
Conditions: pH 8.0, 40 °C, 50 mM potassium phosphate; 0.25-2 mM substrate

- Km: 488 ± 1 µM
SMILES: CCCC(=O)Oc1ccc([N+](=O)[O-])cc1 [p-NPC4, p-nitrophenyl butyrate]

— PMC10385968, “Enzymatic Characterization of a Novel HSL Family IV Esterase EstD04 from Pseudomonas sp. D01 in Mealworm Gut Microbiota” (Molecules, 2023)
